pIC50: −log10 of the molar value. Values belong to the molecule of their own block, whether it stands above or below them. Side chains are listed from the residue outwards. Peptide text beside a SMILES is read from it. * marks the point of attachment. X1 = NCCCC[C@H](N)CN1CCC[C@H]1C(=O)*
How the values were obtained:
MDA-MB231 tumours = test: Tumour growth in MDA-MB231 xenograft model in athymic mice; format: in vivo, athymic mice (nude/nude)
Protocol: FIG. 9. Effect of HB-19 on tumour growth in an MDA-MB231 xenograft model. Human mammary carcinoma MDA-MB231 cells were injected subcutaneously athymic mice (nude). When the tumour reached a volume of 200 mm^3, mice were treated by subcutaneous route as shown in graph in A. B. Observation and measurement of tumours in mice sacrificed at day 40. C. Tumour weight in mice sacrificed at day 40.
FIG. 10. Effect of HB-19 on tumour growth in an MDA-MB231 xenograft model. Changes in tumour growth. Intraperitoneal (IP) or subcutaneous (SC) injections.
Groups of 4 athymic mice (nude/nude) were injected in the flank with 2×10^6 cells. When tumour volume reached at least 200 mm^3, mice were either treated or not by injection in the tumour (peritumoral or subcutaneous route) of 100 μl every two days of a PBS solution (control group) or HB-19 solution (5 mg/kg) or a commonly used clinical agent, tamoxifen (also called […], 10 mg/kg). Tumour size was measured on days 7, 14, 21, 28, 34 and 40 using a calliper.
In another experiment, HB19 (5 mg/kg) was administered by intraperitoneal route (IP) and peritumoral route (SC) (FIG. 10).

NIH-3T3 cells = test: Proliferation of NIH-3T3 cells stimulated by 5% foetal calf serum (tritiated thymidine incorporation); format: cell-based; conditions: non-stimulated NIH-3T3 cells
Protocol: FIG. 5. Effect of HB-19 on the proliferation of NIH-3T3 cells stimulated by 0.2 nM FGF-2 (A) or by 5% foetal calf serum (B). Quiescent NIH-3T3 cells are stimulated by FGF-2 or by 5% serum in the presence or not of HB19 at the concentrations indicated. After 24 hours of incubation, cell proliferation was determined by measuring the incorporation of tritiated thymidine. The results are given as a percentage with respect to the control stimulated by HARP (100%). MSD (threshold), (**p<0.01 and ***p<0.001).
FIG. 14. Effect of NUCANT 3, 6 and 7 on the proliferation of NIH-3T3 cells stimulated by 5% FCS. […] After 24 hours of incubation, cell proliferation was determined by measuring the incorporation of tritiated thymidine. […]
The effect of Nucant 3 on the proliferation of NIH-3T3 cells treated by 5% of FCS was also compared to that of compound HB-19. […] After 24 hours in incubation, cell proliferation is determined by measuring the incorporation of tritiated thymidine as described earlier.
The effect of hexavalent compounds Nucant 6 and Nucant 7 on the proliferation of NIH-3T3 cells triggered by 5% FCS was compared with that of pentavalent compound HB-19. […] After 24 hours of incubation, cell proliferation was determined by measuring the incorporation of tritiated thymidine as described above.

surface nucleolin = molecular target: T1, surface nucleolin (Homo sapiens, UniProt P19338); test: Activity of surface nucleolin in HeLa P4 cells; format: cell-based
T1 construct: endogenous in cells; host or cells: HeLa P4 cells
Protocol: FIG. 15. Nucant 6 and Nucant 7 show better anti-surface nucleolin activity than HB-19. ID50: concentration in μM which inhibits surface nucleolin by 50%. ID95: concentration in μM which inhibits surface nucleolin by 95%.
The activity of surface nucleolin was tested in HeLa P4 cells using the technique we have described previously (13).

[1] = cited from earlier work
[2] = 10 mg/kg, mice sacrificed after 40 days of treatment

T1 sequence (P19338 whole entry): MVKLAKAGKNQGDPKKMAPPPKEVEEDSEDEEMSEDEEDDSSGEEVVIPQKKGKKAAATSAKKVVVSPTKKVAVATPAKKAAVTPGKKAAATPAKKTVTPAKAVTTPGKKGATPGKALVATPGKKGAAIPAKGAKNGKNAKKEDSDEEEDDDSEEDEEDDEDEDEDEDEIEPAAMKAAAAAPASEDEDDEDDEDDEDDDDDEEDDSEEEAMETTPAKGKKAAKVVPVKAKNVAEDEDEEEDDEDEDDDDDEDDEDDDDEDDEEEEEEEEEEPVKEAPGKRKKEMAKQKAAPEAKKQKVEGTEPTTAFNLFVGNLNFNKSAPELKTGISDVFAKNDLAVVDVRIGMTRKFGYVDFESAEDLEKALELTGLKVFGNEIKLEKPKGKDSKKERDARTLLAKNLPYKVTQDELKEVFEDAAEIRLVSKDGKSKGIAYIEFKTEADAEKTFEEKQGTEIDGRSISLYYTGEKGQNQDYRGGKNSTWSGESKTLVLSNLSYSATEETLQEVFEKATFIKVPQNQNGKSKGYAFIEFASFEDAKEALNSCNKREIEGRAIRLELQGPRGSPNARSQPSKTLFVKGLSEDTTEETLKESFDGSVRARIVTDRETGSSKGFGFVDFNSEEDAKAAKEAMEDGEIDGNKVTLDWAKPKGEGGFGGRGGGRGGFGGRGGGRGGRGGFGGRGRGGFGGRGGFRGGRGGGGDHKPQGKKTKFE

Molecule: CC/C(=C(\c1ccccc1)c1ccc(OCCN(C)C)cc1)c1ccccc1 [tamoxifen]
change of tumour volume from the start of treatment (MDA-MB231 tumours; 10 mg/kg every two days): did not change in a significant manner | average weight of tumours (MDA-MB231 tumours; [2]): 0.06 g | distribution of tumour weight (MDA-MB231 tumours; [2]): 0.006 to 0.22 g

inhibition at 0.8 µM (surface nucleolin; M-HeLa, 0.8 μM): > 95% | pIC50 (surface nucleolin; read-out: ID50 value (Inhibitory Dose at 50%), surface nucleolin activity): > 7.00
Molecule: CC(=O)N[C@@H](CCCCNC(=O)[C@H](CCCNC(=N)N)NC(=O)[C@@H]1CCCN1C[C@@H](N)CCCCN)C(=O)N[C@@H](C)C(=O)N[C@@H](CCCCNC(=O)[C@H](CCCNC(=N)N)NC(=O)[C@@H]1CCCN1C[C@@H](N)CCCCN)C(=O)N1CCC[C@H]1C(=O)NCC(=O)N[C@@H](CCCCNC(=O)[C@H](CCCNC(=N)N)NC(=O)[C@@H]1CCCN1C[C@@H](N)CCCCN)C(=O)N[C@@H](C)C(=O)N[C@@H](CCCCNC(=O)[C@H](CCCNC(=N)N)NC(=O)[C@@H]1CCCN1C[C@@H](N)CCCCN)C(=O)N1CCC[C@H]1C(=O)NCC(=O)N[C@@H](CCCCNC(=O)[C@H](CCCNC(=N)N)NC(=O)[C@@H]1CCCN1C[C@@H](N)CCCCN)C(=O)N[C@@H](C)C(=O)N[C@@H](CCCCNC(=O)[C@H](CCCNC(=N)N)NC(=O)[C@@H]1CCCN1C[C@@H](N)CCCCN)C(=O)N1CCC[C@H]1C(=O)NCC(N)=O [Nucant 7] (Ac-K([Arg-X1])AK([Arg-X1])PGK([Arg-X1])AK([Arg-X1])PGK([Arg-X1])AK([Arg-X1])PG-NH2)
effect on non-stimulated cells (toxicity) (NIH-3T3 cells): No effect

Molecule: Avastin: anti-angiogenic agent
survival ([1]; complement to chemotherapy (irinotecan/5-fluorouracile/leucovorin)): 20.3 months | length of time during which the tumour did not grow ([1]; complement to chemotherapy): 10.6 months

— patent US8497349B2, “Use of multivalent synthetic ligands of surface nucleolin for treating cancer or inflammation” (Centre National de la Recherche Scientifique (CNRS), priority 2006, dated 2013)
